Measured values published in paper PMC12913230, “Investigating the Ligand‐Binding Properties of N‐arylbenzimidazoles as Novel Elastase Inhibitors” (Chemmedchem, 2025).

What was measured:
[1] = target: T1, porcine pancreatic elastase (PPE) (Sus scrofa, UniProt P00772); experiment: Elastase inhibition assay with SANA substrate; format: biochemical; details: for %I @50 μM / mode of inhibition (Lineweaver–Burk plot) / IC50: PPE; for %I @50 μM: 50 µM compound, SANA substrate, mean ± SD, n = 3; for mode of inhibition (Lineweaver–Burk plot): SANA as substrate; for IC50: SANA substrate 1.6 mM, Tris-HCl pH 8.0; for Ki: binding with the free enzyme, secondary plot of Lineweaver–Burk slopes, SANA 0.5-1.5 mM, read-out: inhibition constant (Ki)
T1 construct: purchased Merck Sigma Aldrich (Milano, Italy)
T1 sequence (P00772 27-266): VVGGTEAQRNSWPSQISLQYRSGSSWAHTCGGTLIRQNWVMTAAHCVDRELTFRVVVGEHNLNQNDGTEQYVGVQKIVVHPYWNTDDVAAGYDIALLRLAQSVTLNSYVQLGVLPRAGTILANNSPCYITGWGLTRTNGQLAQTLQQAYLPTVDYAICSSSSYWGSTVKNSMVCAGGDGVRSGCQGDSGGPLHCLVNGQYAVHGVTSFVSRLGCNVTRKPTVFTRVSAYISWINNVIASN
Procedure: The inhibition mechanism was assessed using Lineweaver–Burk plot analysis.
Elastase inhibition was determined using the substrate N‐succ‐(Ala)3‐nitroanilide (SANA) as previously described.^[ [27] ^] The assay was performed in 0.1 M Tris‐HCl buffer (pH 8.0). PPE (3.3 µg mL^−1) was incubated with or without the compound for 20 min, and after incubation, the substrate (1.6 mM) was added. The release of p‐nitroaniline during cleavage of the substrate SANA by the enzyme activity was monitored at 410 nm. The control was performed with DMSO, while oleanolic acid was used as a positive control. […] The mode of inhibition on the enzyme was performed using the Lineweaver–Burk plot. Different concentrations of SANA (0.5, 0.75, 1.0, and 1.5 mM) were used for the assay. All reagents were purchased from “Merck Sigma Aldrich” (Milano, Italy).

[2] = Relative lipophilicity by reverse-phase TLC (RM); format: physicochemical; details: RP-TLC C18, acetone–water 2/1 v/v, 25 °C, RM = log[(1/RF) − 1]
Procedure: In addition, we assessed the relative lipophilicity of the investigated compounds using the reverse‐phase thin layer chromatography (RP‐TLC), following the procedure detailed in Experimental Section. Based on retention factor (R F), we obtained the corresponding R M values for the homogenous series of compounds 1–9. The applied methodology is described in detail in the Experimental Section.
The experimental determination of relative lipophilicity was carried out using reversed‐phase thin‐layer chromatography (20 × 20 cm plates coated with C18 silica RP18 F254, E. Merck, Darmstadt, Germany). A binary solvent system consisting of acetone–water (2/1, v/v) served as the mobile phase. Compounds 1–9 were prepared in methanol to obtain a concentration of 2.0 mg/mL; from these working solutions, a volume of 0.2 μL was spotted on the plate, which was dried at 105 °C for 1 h before use. The chromatograms were developed to a distance of 10 cm from the origin in ascending TLC chambers and developed at 25 °C. After development, compound spots were visualized under UV light at 254 nm. Each determination was performed as triplicate 3 by spotting the compounds on the plate in distinct position; therefore, each RF value resulted as a mean value obtained in triplicate.

[3] = target: T1, porcine pancreatic elastase (PPE); design: method as in PMID 39456954; details: PPE active site; cited from earlier work

| Structure (SMILES) | %I @50 μM [1] [%] | RM (relative lipophilicity) [2] | mode of inhibition (Lineweaver–Burk plot) [1] | IC50 [1] [µM] | Ki [1] [µM] | mode of inhibition [3] |
| --- | --- | --- | --- | --- | --- | --- |
| Cc1cc(C)cc(Cn2c(SCC(=O)Nc3ccc(C)cc3Cl)nc3ccccc32)c1 [Compound 1, N‐(2‐chloro‐4‐methylphenyl)‐2‐[[1‐[(3,5‐dimethylphenyl)methyl]‐1H‐benzimidazol‐2‐yl]thio]acetamide] | 30.0 ± 2.1 | 1.023 |  |  |  | reversible competitive inhibitor |
| Cc1cc(C)cc(Cn2c(SCC(=O)Nc3ccc(C)cc3Cl)nc3ccc(Cl)cc32)c1 [Compound 8, 2‐(6‐chloro‐1‐(3,5‐dimethylbenzyl)‐1H‐benzo[d]imidazol‐2‐ylthio)‐N‐(2‐chloro‐4‐methylphenyl)acetamide] | 40.6 ± 0.7 | 1.121 |  |  |  |  |
| Cc1cc(C)cc(Cn2c(SCC(=O)Nc3ccccc3Cl)nc3ccc(Cl)cc32)c1 [Compound 6, 2‐(6‐Chloro‐1‐(3,5‐dimethylbenzyl)‐1H‐benzo[d]imidazol‐2‐ylthio)‐N‐(2‐chlorophenyl)acetamide] | 57.4 ± 2.6 | 1.221 | competitive | 44.8 ± 1.4 | 25.8 |  |
| Cc1cc(C)cc(Cn2c(SCC(=O)Nc3ccc(S(N)(=O)=O)cc3Cl)nc3ccccc32)c1 [Compound 5, N‐(2‐Chloro‐4‐sulfamoylphenyl)‐2‐(1‐(3,5‐dimethylbenzyl)‐1‐benzo[d]imidazol‐2‐ylthio)acetamide] | 19.3 ± 0.9 | 0.558 |  |  |  |  |
| Cc1cc(C)cc(Cn2c(SCC(=O)Nc3ccc(S(C)(=O)=O)cc3Cl)nc3ccc(Cl)cc32)c1 [Compound 9, 2‐(6‐Chloro‐1‐(3,5‐dimethylbenzyl)‐1H‐benzo[d]imidazol‐2‐ylthio)‐N‐(2‐chloro‐4‐(methylsulfonyl)phenyl)acetamide] | 31.0 ± 0.6 | 1.023 |  |  |  |  |
| Cc1cc(C)cc(Cn2c(SCC(=O)Nc3ccccc3Cl)nc3ccccc32)c1 [Compound 2, N‐(2‐Chlorophenyl)‐2‐(1‐(3,5‐dimethylbenzyl)‐1H‐benzo[d]imidazol‐2‐ylthio)acetamide] | 29.1 ± 2.3 | 0.971 |  |  |  |  |

More lines, main results first:

| %I @50 μM [1] [%] | RM (relative lipophilicity) [2] | mode of inhibition (Lineweaver–Burk plot) [1] | IC50 [1] [µM] | Ki [1] [µM] | Structure (SMILES) | mode of inhibition [3] |
| --- | --- | --- | --- | --- | --- | --- |
| 17.3 ± 0.7 | 0.678 |  |  |  | Cc1cc(C)cc(Cn2c(SCC(=O)Nc3ccc(S(C)(=O)=O)cc3Cl)nc3ccccc32)c1 [Compound 4, N‐(2‐Chloro‐4‐(methylsulfonyl)phenyl)‐2‐(1‐(3,5‐dimethylbenzyl)‐1H‐benzo[d]imidazol‐2‐ylthio)acetamide] |  |
| 26.5 ± 0.4 | 0.938 |  |  |  | Cc1cc(C)cc(Cn2c(SCC(=O)Nc3ccccc3Br)nc3ccccc32)c1 [Compound 3, N‐(2‐Bromophenyl)‐2‐(1‐(3,5‐dimethylbenzyl)‐1H‐benzo[d]imidazol‐2‐ylthio)acetamide] |  |
| 62.2 ± 2.1 | 1.195 | competitive | 41.1 ± 1.9 | 21 | Cc1cc(C)cc(Cn2c(SCC(=O)Nc3ccccc3Br)nc3ccc(Cl)cc32)c1 [Compound 7, N‐(2‐Bromophenyl)‐2‐(6‐chloro‐1‐(3,5‐dimethylbenzyl)‐1H‐benzo[d]imidazol‐2‐ylthio)acetamide] |  |
